In ChEMBL document CHEMBL4342428, “d-Limonene Ameliorates Myocardial Infarction Injury by Reducing Reactive Oxygen Species and Cell Apoptosis in a Murine Model” (2019) one finds Activity data, which are given here for two compounds.

The source made the active and inactive calls. No cut-off for these calls is given here.

Test [1] relates to Mus musculus. As to the kind of experiment: Cardioprotective activity in Swiss mouse model of isoproterenol-induced myocardial infarction assessed as reduction in myocardial infarct size at 1200 mg/kg administered 30 mins post isoproterenol stimulation by TTC staining based assay. It counts as functional, organism-based.
For test [2], the system named is Mus musculus. As to the kind of experiment: Cardioprotective activity in Swiss mouse model of isoproterenol-induced myocardial infarction assessed as reduction in lactate dehydrogenase at 1200 mg/kg administered 30 mins post isoproterenol stimulation. Format: functional, organism-based.
For test [3], the system named is Mus musculus. The test is described as follows: Cardioprotective activity in Swiss mouse model of myocardial infarction assessed as reversal of isoproterenol-induced increase in heart rate at 1200 mg/kg administered 30 mins post isoproterenol stimulation and measured for 5 mins by electrocardiographic analysis. Format: functional, organism-based.
For test [4], the system named is Mus musculus. As to the kind of experiment: Cardioprotective activity against isoproterenol-induced apoptosis in Swiss mouse model of myocardial infarction assessed as reduction in Bax/Bcl2 expression ratio in at 1200 mg/kg administered 30 mins post isoproterenol stimulation by Western blot analysis. It counts as functional, organism-based.
For test [5], the system named is Mus musculus. The test is described as follows: Cardioprotective activity in Swiss mouse model of myocardial infarction assessed as reversal of isoproterenol-induced increase in QTc interval at 1200 mg/kg administered 30 mins post isoproterenol stimulation and measured for 5 mins by electrocardiographic analysis. Format: functional, organism-based.
Test [6] has as its system Mus musculus. As to the kind of experiment: Cardioprotective activity against isoproterenol-induced apoptosis in Swiss mouse model of myocardial infarction assessed as increase in Bcl2 expression at 1200 mg/kg administered 30 mins post isoproterenol stimulation by Western blot analysis. It counts as functional, organism-based. On the technique in general: In western blotting, separated proteins are transferred to a membrane and probed.

Test [7] has as its system Mus musculus. The test is described as follows: Cardioprotective activity against isoproterenol-induced apoptosis in Swiss mouse model of myocardial infarction assessed as reduction in Bax expression at 1200 mg/kg administered 30 mins post isoproterenol stimulation by Western blot analysis. It counts as functional, organism-based.
The test system of test [8] is Mus musculus. The test is described as follows: Cardioprotective activity in Swiss mouse model of isoproterenol-induced myocardial Infarction assessed as abnormal ST-segment at 1200 mg/kg administered 30 mins post isoproterenol stimulation and measured for 5 mins by electrocardiographic analysis (reference value: 70%). It counts as functional.
In test [9] the test system is Mus musculus. As to the kind of experiment: Cardioprotective activity in Swiss mouse model of isoproterenol-induced myocardial infarction assessed as reduction in creatine kinase myocardial band at 1200 mg/kg administered 30 mins post isoproterenol stimulation. Format: functional, organism-based.
Test [10] has as its system Mus musculus. As to the kind of experiment: Cardioprotective activity against isoproterenol-induced oxidative stress in Swiss mouse model of myocardial infarction assessed as reduction in ROS generation at 1200 mg/kg administered 30 mins post isoproterenol stimulation by DHE staining based fluorescence assay. Format: functional, organism-based.
The test system of test [11] is Mus musculus. As to the kind of experiment: Cardioprotective activity in Swiss mouse model of myocardial infarction assessed as protection against isoproterenol-induced degeneration in myocardium at 10 umol, ip administered 30 mins post isoproterenol stimulation by H and E staining based histopathological analysis. Format: functional, organism-based.
The test system of test [12] is Mus musculus. The test is described as follows: Cardioprotective activity against isoproterenol-induced oxidative stress in Swiss mouse model of myocardial infarction assessed as reduction in caspase-3 expression at 10 umol, ip administered 30 mins post isoproterenol stimulation by Western blot analysis. Format: functional, organism-based.
In test [13] the test system is Mus musculus. The test is described as follows: Cardioprotective activity against isoproterenol-induced apoptosis in Swiss mouse model of myocardial infarction assessed as change in Bcl2 expression at 10 umol, ip administered 30 mins post isoproterenol stimulation by Western blot analysis. Format: functional, organism-based.
Test [14] relates to Mus musculus. The test is described as follows: Cardioprotective activity in Swiss mouse model of isoproterenol-induced myocardial infarction assessed as reduction in creatine kinase myocardial band at 10 umol, ip administered 30 mins post isoproterenol stimulation. It counts as functional, organism-based.
In test [15] the test system is Mus musculus. The test is described as follows: Cardioprotective activity in Swiss mouse model of myocardial infarction assessed as protection against isoproterenol-induced mononuclear cell infiltration in myocardium at 10 umol, ip administered 30 mins post isoproterenol stimulation by H and E staining based histopathological analysis. It counts as functional, organism-based.

In test [16] the test system is Mus musculus. The test is described as follows: Cardioprotective activity against isoproterenol-induced oxidative stress in Swiss mouse model of myocardial infarction assessed as increase in GPx activity at 10 umol, ip administered 30 mins post isoproterenol stimulation by spectrophotometric method. It counts as functional, organism-based.
Test [17] has as its system Mus musculus. As to the kind of experiment: Cardioprotective activity against isoproterenol-induced oxidative stress in Swiss mouse model of myocardial infarction assessed as reduction in ROS generation at 10 umol, ip administered 30 mins post isoproterenol stimulation by DHE staining based fluorescence assay. It counts as functional, organism-based.
Test [18] relates to Mus musculus. As to the kind of experiment: Cardioprotective activity in Swiss mouse model of myocardial infarction assessed as reversal of isoproterenol-induced increase in heart rate at 10 umol, ip administered 30 mins post isoproterenol stimulation and measured for 5 mins by electrocardiographic analysis. It counts as functional, organism-based.
The subject of test [19] is Mus musculus. As to the kind of experiment: Cardioprotective activity against isoproterenol-induced apoptosis in Swiss mouse model of myocardial infarction assessed as reduction in Bax/Bcl2 expression ratio in at 10 umol, ip administered 30 mins post isoproterenol stimulation by Western blot analysis. It counts as functional, organism-based.
Test [20] concerns Mus musculus. The test is described as follows: Cardioprotective activity in Swiss mouse model of myocardial infarction assessed as protection against isoproterenol-induced capillary congestion in myocardium at 10 umol, ip administered 30 mins post isoproterenol stimulation by H and E staining based histopathological analysis. It counts as functional, organism-based.
The test system of test [21] is Mus musculus. As to the kind of experiment: Cardioprotective activity against isoproterenol-induced oxidative stress in Swiss mouse model of myocardial infarction assessed as increase in SOD activity at 10 umol, ip administered 30 mins post isoproterenol stimulation by spectrophotometric method. It counts as functional, organism-based.
In test [22] the test system is Mus musculus. As to the kind of experiment: Cardioprotective activity in Swiss mouse model of isoproterenol-induced myocardial infarction assessed as reduction in lactate dehydrogenase at 10 umol, ip administered 30 mins post isoproterenol stimulation. It counts as functional, organism-based.
In test [23] the test system is Mus musculus. As to the kind of experiment: Cardioprotective activity in Swiss mouse model of isoproterenol-induced myocardial Infarction assessed as abnormal ST-segment at 10 umol, ip administered 30 mins post isoproterenol stimulation and measured for 5 mins by electrocardiographic analysis (reference value: 70%). Format: functional.
For test [24], the system named is Mus musculus. As to the kind of experiment: Cardioprotective activity against isoproterenol-induced oxidative stress in Swiss mouse model of myocardial infarction assessed as reduction in sulfhydryl level in cardiac tissue homogenate at 10 umol, ip administered 30 mins post isoproterenol stimulation by spectrophotometric method. Format: functional, organism-based.

Test [25] relates to Mus musculus. The test is described as follows: Cardioprotective activity in Swiss mouse model of isoproterenol-induced myocardial infarction assessed as reduction in inflammatory cell infiltration in myocardium at 10 umol, ip administered 30 mins post isoproterenol stimulation by H and E staining based histopathological analysis. Format: functional, organism-based.
Test [26] has as its system Mus musculus. As to the kind of experiment: Cardioprotective activity in Swiss mouse model of myocardial infarction assessed as protection against isoproterenol-induced wide spacing in myocardium at 10 umol, ip administered 30 mins post isoproterenol stimulation by H and E staining based histopathological analysis. Format: functional, organism-based.
Test [27] has as its system Mus musculus. The test is described as follows: Cardioprotective activity in Swiss mouse model of myocardial infarction assessed as protection against isoproterenol-induced discontinuity in myocardium at 10 umol, ip administered 30 mins post isoproterenol stimulation by H and E staining based histopathological analysis. It counts as functional, organism-based.
The subject of test [28] is Mus musculus. As to the kind of experiment: Cardioprotective activity against isoproterenol-induced oxidative stress in Swiss mouse model of myocardial infarction assessed as increase in catalase activity at 10 umol, ip administered 30 mins post isoproterenol stimulation by spectrophotometric method. It counts as functional, organism-based.
Test [29] has as its system Mus musculus. The test is described as follows: Cardioprotective activity in Swiss mouse model of myocardial infarction assessed as reversal of isoproterenol-induced increase in QTc interval at 10 umol, ip administered 30 mins post isoproterenol stimulation and measured for 5 mins by electrocardiographic analysis. Format: functional, organism-based.
Test [30] deals with Mus musculus. The test is described as follows: Cardioprotective activity against isoproterenol-induced oxidative stress in Swiss mouse model of myocardial infarction assessed as change in ferric ion reducing activity at 10 umol, ip administered 30 mins post isoproterenol stimulation by FRAP assay. It counts as functional, organism-based.
For test [31], the system named is Mus musculus. The test is described as follows: Cardioprotective activity in Swiss mouse model of myocardial infarction assessed as protection against isoproterenol-induced vacuolation in myocardium at 10 umol, ip administered 30 mins post isoproterenol stimulation by H and E staining based histopathological analysis. It counts as functional, organism-based.
Test [32] has as its system Mus musculus. The test is described as follows: Cardioprotective activity against isoproterenol-induced oxidative stress in Swiss mouse model of myocardial infarction assessed as reduction in lipid peroxidation at 10 umol, ip administered 30 mins post isoproterenol stimulation by TBARS method. Format: functional, organism-based.
The subject of test [33] is Mus musculus. As to the kind of experiment: Cardioprotective activity against isoproterenol-induced apoptosis in Swiss mouse model of myocardial infarction assessed as reduction in Bax expression at 10 umol, ip administered 30 mins post isoproterenol stimulation by Western blot analysis. It counts as functional, organism-based.
Test [34] relates to Mus musculus. The test is described as follows: Cardioprotective activity in Swiss mouse model of isoproterenol-induced myocardial infarction assessed as reduction in myocardial infarct size at 10 umol, ip administered 30 mins post isoproterenol stimulation by TTC staining based assay. Format: functional, organism-based.
The test system of test [35] is Mus musculus. As to the kind of experiment: Cardioprotective activity against isoproterenol-induced oxidative stress in Swiss mouse model of myocardial infarction assessed as reduction in protein carbonylation at 10 umol, ip administered 30 mins post isoproterenol stimulation by spectrophotometric method. It counts as functional, organism-based.

As for `CC(=O)N[C@@H](CS)C(=O)O` [ACETYLCYSTEINE], the result in test [1], in test [2], in [3], in [4], in test [5] and in test [6] was Active. Moreover, the result in test [7], in [9] and in [10] was Active. Also, the Activity in [8] worked out at 20%.

For `C=C(C)[C@H]1CC=C(C)CC1` [D-LIMONENE], the outcome in test [11], in [12], in test [14], in test [15], in [16] and in [17] was Active. Further, the result in test [18], in test [19], in test [20], in [21], in [22] and in test [24] was Active. The result in test [25], in test [26], in test [27], in [29], in [31] and in test [32] was Active. Besides, the outcome in [33], in test [34] and in test [35] was Active. Besides, the result in test [13], in test [28] and in test [30] was inactive. Also, in test [23], the Activity came to 30%.
